Source: ChEMBL document CHEMBL1155726, “Seven new sesquiterpene glycosides from the root bark of Dictamnus dasycarpus” (J Nat Prod, 2001)
Calls of active or inactive are those of the source. The calls are words filed in the database; no cut-off is given here.

System: Splenocyte
Test: Immunomodulatory activity in mouse splenocyte assessed as stimulation of proliferation at 10 umole/L after 44 hrs by MTT assay in presence of ConA
Type: functional, cell-based

CC(C)(O)[C@@H]1CC[C@]23CO[C@](C)(CC[C@@H]2O)[C@H]3[C@@H]1O[C@@H]1O[C@H](CO)[C@@H](O)[C@H](O)[C@H]1O
Activity: Active
